For two compounds, Ki results are on record in patent US8268999B2, “Tri-cyclic pyrazolopyridine kinase inhibitors” (Vertex Pharmaceuticals Incorporated, priority 2009, dated 2012).

“And” between values parts separate entries of the source, which are not always exact repeats. Identical values can stand only once.

One assay addresses PI3Kα (Homo sapiens, UniProt P42336). Put plainly: PI3K Inhibition Assay (33P-ATP, PI(4,5)P2 substrate), PI3Kα. The following applies: 2 nM final enzyme, 3 μM ATP, 30 μM PI(4,5)P2, 30 min at 25° C.; competitive tight binding Ki fit. Type of assay: biochemical. The procedure:
(§1) Using a Biomek FX from Beckman Coulter, 1.5 μL of each of ten 2.5-fold serial dilutions of a compound of the invention in 100% DMSO was added to an individual well (hereafter, “test well”) in a 96 well polystyrene plate [Corning, Costar Item No. 3697]. One test well also contained 1.5 μL of DMSO with no compound. […] Using a Titertek Multidrop, 50 μL of Reaction Mix [100 mM HEPES pH 7.5, 50 mM NaCl, 10 mM DTT, 0.2 mg/mL BSA, 60 μM phosphatidylinositol(4,5)-bisphosphate diC16 (PI(4,5)P2; Avanti Polar Lipids, Cat. No. 840046P) and PI3K isoform of interest (see Table 3 for isoform concentrations)] was added to each well. To initiate the reaction, 50 μL of ATP Mix [20 mM MgCl2, 6 μM ATP (100 μCi/μmole ^33P-ATP)] was added each well, followed by incubating the wells for 30 min. at 25° C. Final concentrations in each well were 50 mM HEPES 7.5, 10 mM MgCl2, 25 mM NaCl, 5 mM DTT, 0.1 mg/mL BSA, 30 μM PI(4,5)P2, 3 μM ATP, and the PI3K isoform of interest (see Table 3). Final compound concentrations in each well ranged from 10 μM to 1 nM.
(§2) After incubation, the reactions in each well were quenched by addition of 50 μL of stop solution [30% TCA/Water, 10 mM ATP]. […] 50 μL of scintillation fluid was added to each well and the plate read on a Perkin-Elmer TopCount™ NXT liquid scintillation counter to obtain ^33P-counts representing inhibition values. […]

In the next assay the target is PI3Kγ (Homo sapiens, UniProt P48736). Kind of assay: PI3K Inhibition Assay (33P-ATP, PI(4,5)P2 substrate), PI3Kγ. Type of assay: biochemical. The following applies: 2 nM final enzyme, 3 μM ATP, 30 μM PI(4,5)P2, 30 min at 25° C.; competitive tight binding Ki fit. The procedure: as §1, §2
PI3Kγ, sequence (P48736 whole entry, species assumed): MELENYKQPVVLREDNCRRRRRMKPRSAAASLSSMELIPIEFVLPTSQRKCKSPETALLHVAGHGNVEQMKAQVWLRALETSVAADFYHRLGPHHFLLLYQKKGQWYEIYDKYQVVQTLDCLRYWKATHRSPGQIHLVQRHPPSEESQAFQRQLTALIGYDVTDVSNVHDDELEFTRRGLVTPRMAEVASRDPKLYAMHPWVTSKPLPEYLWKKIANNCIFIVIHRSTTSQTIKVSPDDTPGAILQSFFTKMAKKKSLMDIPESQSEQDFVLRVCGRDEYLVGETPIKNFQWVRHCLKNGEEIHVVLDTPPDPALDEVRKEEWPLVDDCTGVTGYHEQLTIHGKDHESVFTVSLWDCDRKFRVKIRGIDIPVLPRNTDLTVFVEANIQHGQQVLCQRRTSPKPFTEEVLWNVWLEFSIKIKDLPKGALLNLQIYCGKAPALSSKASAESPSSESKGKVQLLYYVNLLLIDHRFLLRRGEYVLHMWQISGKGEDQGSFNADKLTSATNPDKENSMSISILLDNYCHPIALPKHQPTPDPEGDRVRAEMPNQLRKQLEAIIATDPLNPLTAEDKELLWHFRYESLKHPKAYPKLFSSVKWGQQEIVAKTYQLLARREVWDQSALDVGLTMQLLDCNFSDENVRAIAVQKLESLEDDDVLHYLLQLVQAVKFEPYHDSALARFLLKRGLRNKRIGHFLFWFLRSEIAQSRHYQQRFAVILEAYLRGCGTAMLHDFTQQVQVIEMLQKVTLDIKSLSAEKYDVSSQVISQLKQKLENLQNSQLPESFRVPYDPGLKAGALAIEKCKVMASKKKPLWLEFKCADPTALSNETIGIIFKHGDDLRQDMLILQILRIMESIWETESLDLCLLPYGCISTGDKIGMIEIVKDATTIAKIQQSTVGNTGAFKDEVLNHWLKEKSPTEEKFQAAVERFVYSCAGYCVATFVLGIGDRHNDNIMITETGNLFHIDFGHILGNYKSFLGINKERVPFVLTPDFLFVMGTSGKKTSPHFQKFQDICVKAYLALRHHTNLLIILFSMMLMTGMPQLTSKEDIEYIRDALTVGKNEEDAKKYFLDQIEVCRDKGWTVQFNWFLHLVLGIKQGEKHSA

PI3Kα, sequence (P42336 whole entry, species assumed, canonical isoform): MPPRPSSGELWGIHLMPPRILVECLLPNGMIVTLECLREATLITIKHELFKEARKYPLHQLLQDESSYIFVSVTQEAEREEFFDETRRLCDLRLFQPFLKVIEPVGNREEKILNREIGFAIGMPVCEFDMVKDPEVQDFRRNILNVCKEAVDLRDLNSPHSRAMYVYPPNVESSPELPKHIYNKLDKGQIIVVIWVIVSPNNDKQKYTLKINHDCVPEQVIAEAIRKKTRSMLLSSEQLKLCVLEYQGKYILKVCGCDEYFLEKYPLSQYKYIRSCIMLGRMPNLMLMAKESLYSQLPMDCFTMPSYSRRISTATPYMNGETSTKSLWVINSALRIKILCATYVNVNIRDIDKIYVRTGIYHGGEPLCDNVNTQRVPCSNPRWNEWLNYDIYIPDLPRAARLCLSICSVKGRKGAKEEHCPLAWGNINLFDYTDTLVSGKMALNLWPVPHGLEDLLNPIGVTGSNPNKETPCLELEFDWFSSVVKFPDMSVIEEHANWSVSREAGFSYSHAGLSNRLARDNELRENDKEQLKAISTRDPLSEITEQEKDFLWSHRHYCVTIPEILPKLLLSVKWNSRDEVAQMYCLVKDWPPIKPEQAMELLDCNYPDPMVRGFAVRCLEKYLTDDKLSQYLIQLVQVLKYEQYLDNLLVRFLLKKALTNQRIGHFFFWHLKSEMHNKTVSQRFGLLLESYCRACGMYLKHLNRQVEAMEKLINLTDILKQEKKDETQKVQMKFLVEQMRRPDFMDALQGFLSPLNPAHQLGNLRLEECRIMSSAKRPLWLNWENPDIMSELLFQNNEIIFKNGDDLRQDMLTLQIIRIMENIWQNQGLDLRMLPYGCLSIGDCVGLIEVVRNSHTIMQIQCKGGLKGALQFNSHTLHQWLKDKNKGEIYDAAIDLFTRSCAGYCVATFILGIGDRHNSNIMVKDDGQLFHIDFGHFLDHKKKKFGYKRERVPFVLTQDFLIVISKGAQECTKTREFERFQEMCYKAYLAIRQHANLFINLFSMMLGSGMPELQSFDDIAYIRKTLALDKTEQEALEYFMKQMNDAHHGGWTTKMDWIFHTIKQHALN
PI3Kα, sequence (P27986 whole entry partner, species assumed, canonical isoform): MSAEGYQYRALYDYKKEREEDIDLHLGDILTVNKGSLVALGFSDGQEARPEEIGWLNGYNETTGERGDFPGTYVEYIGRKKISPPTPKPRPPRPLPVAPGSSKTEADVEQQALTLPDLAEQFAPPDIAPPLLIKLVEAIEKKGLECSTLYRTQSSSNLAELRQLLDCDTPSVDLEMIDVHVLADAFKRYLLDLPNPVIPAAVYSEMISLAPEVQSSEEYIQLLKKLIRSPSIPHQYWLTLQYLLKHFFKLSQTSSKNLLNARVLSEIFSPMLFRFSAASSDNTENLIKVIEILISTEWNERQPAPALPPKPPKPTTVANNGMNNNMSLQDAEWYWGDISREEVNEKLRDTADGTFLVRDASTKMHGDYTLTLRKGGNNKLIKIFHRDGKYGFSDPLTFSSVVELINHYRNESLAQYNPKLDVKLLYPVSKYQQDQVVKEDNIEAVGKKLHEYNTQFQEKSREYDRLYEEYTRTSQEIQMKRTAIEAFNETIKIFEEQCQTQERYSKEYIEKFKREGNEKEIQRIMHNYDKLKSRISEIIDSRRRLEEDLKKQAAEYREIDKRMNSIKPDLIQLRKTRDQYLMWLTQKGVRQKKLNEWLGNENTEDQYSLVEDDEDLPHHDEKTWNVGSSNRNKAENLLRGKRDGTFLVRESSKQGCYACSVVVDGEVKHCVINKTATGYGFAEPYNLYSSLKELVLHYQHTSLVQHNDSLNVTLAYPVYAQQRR

Consider `COc1cc(-c2ccc3nc(Nc4cnccn4)sc3n2)cnc1OC` [Compound 37], for which, at PI3Kα, the Ki is 2 nM and < 100 nM. On to `CCN(CC)C(=O)c1cccc(Nc2nc3ccc(-c4cncc(OC)c4)cc3s2)n1` [Compound 110], for which, at PI3Kγ, the inhibition constant Ki is 3 nM and < 100 nM.
